These results are taken from a melting point compilation (Tetko et al.; mined from patent text by program, amines drawn as free bases though some values may be those of a salt).

The melting point is the temperature of the solid-liquid transition.

`C=CCn1c(=O)c2c(nc(/C=C/c3cc(OC)c(OC(C)=O)c(OC)c3)n2C)n(CC=C)c1=O` came in with a melting point of 220 to 221 °C.
The value for `O=C(NCc1cccs1)c1cc2ccnc(N(Cc3ccccc3)Cc3ccccc3)c2[nH]1` was 152 to 154 °C.
For `OC1c2cc(OCc3ccc4ccccc4n3)ccc2OCC1Oc1cccnc1` (configuration not stated), the melting point fell in the range of 126 to 128 °C.
The result for `C=CCCN1CCN(c2nc(C)c(C(=O)NCc3cccnc3)s2)C1=O` reads 144 to 145 °C; that for `Cc1cc(N)nc(CCc2nc3cc(-c4ccc(S(=O)(=O)N5CCC5)cc4)cnc3[nH]2)c1`, 168 °C.
The value for `CCCCCOC(=O)c1ccc(S(N)(=O)=O)cc1` was 96 to 98 °C; that for `O=C(Nc1cccc(C(F)(F)F)c1)N1CCN(Cc2ccc(Nc3ccnc4cc(C(F)(F)F)ccc34)cc2)CC1` was 198 to 200 °C.
The compound `CS(=O)(=O)O[C@@H](COC(c1ccccc1)(c1ccccc1)c1ccccc1)C[C@@H]1c2ccccc2Oc2ccc(F)cc2[C@H]1N=[N+]=[N-]` showed a melting point of 55 to 56 °C.
The value for `CCOc1ccc(C=O)c(Oc2ccc(Cl)cc2Cl)n1` was 95 to 96 °C.
In turn, `O=c1c(C(F)(F)F)cn(C2CC(O)C(COCc3ccccc3)O2)c(=O)n1C1CCCO1` (configuration not stated) displayed a melting point of 145 to 147 °C.
For `CC#COc1cc(-n2c(=O)n3n(c2=S)COCC3)c(Cl)cc1Cl`, the melting point lay within 188 to 190 °C.
The result for `O=S(=O)(Nc1onc2c1CCC2)c1ccccc1` reads 132 °C.
Compound `CCc1c(C)nc2ccc(C)cn2c1=O` gave a melting point of 154 to 156 °C.
The result for `CCC(=O)Nc1cc(C(C)(C)C)on1` reads 95 to 96 °C.
On to `CC(C)(C)OC(=O)N(CCc1ccc(C(F)(F)F)cc1)C1CCN(C[C@@]2(C)Cn3cc([N+](=O)[O-])nc3O2)CC1`, for which the melting point lay in the range of 207 to 209 °C.
The value for `CC1CC(=O)NN=C1c1ccc(NCCN)c([N+](=O)[O-])c1` (configuration not stated) was 162 to 164 °C; that for `Cc1ccc(S(=O)(=O)OCC2Cc3cc(C)c4c(c3O2)CCC4)cc1` (configuration not stated) was 61 to 64 °C; that for `COc1cc(NC(=O)Nc2ccc(N3CCN(C(=O)Nc4ccc(OCCO)cc4C(F)(F)F)CC3)cc2)cc(OC)c1` was 209 to 210 °C.
The value for `O=C(N[C@@H]1CN(C2CCCCC2)C[C@H]1O)c1ccc(Cl)cc1` (relative stereo) was 158 to 160 °C.
The value for `COCCO[C@@H]1c2ccc3c(nc(C)n3C3CC3)c2O[C@H](c2ccccc2)[C@H]1O` was 183 °C; that for `Cc1ccc(CC2CCCN(c3nc(C)c(C(=O)NCc4ccccc4)s3)C2=O)cc1` (configuration not stated) was 110 to 113 °C; that for `CN(C)Cc1ccccc1Oc1cccc(CC(=O)O)c1` was 205 to 208 °C.
`CCCCc1oc2ccccc2c1C(Sc1nc2ccccc2s1)c1ccc(-c2ccc(O)cc2)cc1` (configuration not stated) had a melting point of 130 to 132 °C.
The value for `Nc1c(SSc2c(-c3ncon3)nn(-c3c(Cl)cc(C(F)(F)F)cc3Cl)c2N)c(-c2ncon2)nn1-c1c(Cl)cc(C(F)(F)F)cc1Cl` was 226 to 228 °C.
The value for `COc1ccc(Cc2ccc(C#N)cc2)cc1` was 41.5 to 43.5 °C; that for `Cc1cc(O)c(Cc2ccc(C(C)C)cc2)c(C)c1NC(=O)CC(C)(C)C` was 202 to 203 °C; that for `CC1Nc2cc(F)ccc2-n2cccc21` (configuration not stated) was 76 to 78 °C.
`O=C(O)CNC(=O)c1c(O)n(C2CCCC2)c(=O)n(C2CCCCC2)c1=O` gave a melting point of 222 to 224 °C.
The value for `CS(=O)c1cccc2c1CC(=O)N2C(N)=O` (configuration not stated) was 198 to 200 °C; that for `COc1ccc2c(c1O)N=CC1CCCN1C2=O` (configuration not stated) was 150 to 153 °C; that for `COc1cc2c(cc1S(N)(=O)=O)CCN(C(C)=O)CC2` was 260 to 263 °C.
The result for `CCOC(=O)c1oc2c(-c3ccc(F)cc3)c(-c3ccc(S(C)(=O)=O)cc3)nn2c1C` reads 203 to 204 °C; that for `O=C(Nc1cccc(S(=O)(=O)NC2CC2)c1)c1cnn2c(C(F)(F)F)cc(-c3ccc(C(F)(F)F)cc3)nc12`, 232 °C.
The value for `OCc1cccc(-c2ncc(Br)cn2)c1` was 115 to 116 °C.
For `O=C(NC1CCN(Cc2ccccc2)C1)C12CC3CC(CC(C3)C1)C2` (configuration not stated), the melting point lay in the range of 130 to 132 °C.
The value for `Nc1cccc(-n2cnc3c([N+](=O)[O-])cccc32)c1` was 105 to 110 °C; that for `CNc1ncc2c(=O)n(C)c(=O)n(C)c2n1` was 260 °C; that for `CC(=C1SC(=O)NC1=O)c1ccc(OCCOc2c(-c3ccc(F)cc3)n(C)c3ccc(F)cc3c2=O)cc1` was 245 to 248 °C.
The result for `COC(=O)C1Oc2ccc(Cl)cc2C(c2ccccc2)(C(C)(C)C)O1` (configuration not stated) reads 85 °C.
`CC1=C(c2ccccc2)C(=O)N(C(C)(C)C(=O)Nc2cccc(Cl)c2)CO1` returned a melting point of 114 °C.
The value for `O=CN(O)C(CS(=O)(=O)c1ccc(-c2ccc(OC(F)(F)F)cc2)cc1)c1ccccn1` (configuration not stated) was 116 to 118 °C.
The value for `OCc1nn(-c2ccc(Cl)cc2)c2c1CCC2` was 149 to 150 °C; that for `CCCCCCCCCCCCCCCCCCOc1cc(C(N)=O)cc(N(CC(=O)OCc2ccccc2)CC(=O)OCc2ccccc2)c1` was 112 to 114 °C; that for `CC(=O)N1CCN(NC(=O)c2ccc(F)cc2)CC1` was 209 to 210 °C.
The value for `NC(=O)CC1=C(n2nc(-c3c(-c4ccccc4)nn4ccccc34)ccc2=O)CCCC1` was 204 to 205 °C; that for `Cc1cc(NC(=O)C(CSC(=O)CC(C)C)Cc2ccccc2)cc(C(=O)O)c1` (configuration not stated) was 153 to 157 °C.
Turning to `O=C1c2ccccc2C(=O)N1CCCCc1ccco1`, the melting point was in the range of 61 to 63 °C.
The value for `COc1ccc2ccccc2c1CCCC(=O)O` was 88 °C.
With `COc1ccc(N2CCOCC2)cc1NC(=S)C(=O)Nc1ccc(F)cc1`, the melting point lay within 206 to 208 °C.
`COCc1c(C(=O)OC(C)C)ncc2[nH]c3cccc(Oc4ccc(Cl)cc4)c3c12`: the melting point fell in the range of 119 to 120 °C.
The value for `CCOC(=O)C=Cc1ccc2c(c1)ncn2-c1cccc(N2CCCCC2)c1` was 85 to 87 °C; that for `CNc1cc(Cl)c(OC)c([N+](=O)[O-])c1OC` was 57 °C.
The result for `O=c1c(Br)c(OCc2ccc(Cl)cc2)cnn1-c1ccc(Cl)cc1` reads 168 to 175 °C.
The result for `CCCCCCNC(=O)NCCCCl` reads 48 to 50 °C; that for `Nc1c(C(=O)CCC(=O)O)cccc1C(=O)c1ccccc1`, 161 to 162 °C.
In turn, `O=C(O)CCc1c(-c2ccc(F)cc2)[nH]c2ccc(Cl)cc12` returned a melting point of 153 to 154 °C.
With `CCOC(=O)CSc1cc(NS(=O)(=O)c2cccs2)c2ccccc2c1O`, the melting point was 116 to 118 °C.
The result for `COc1ccc(C(=O)N2c3ccccc3C(n3c4ccccc4c4ccccc43)CC2CCCCCOc2ccc(F)cc2)cc1OC` (configuration not stated) reads 157 to 159 °C; that for `CC(=O)c1cc2c(Br)ccc(OC(C)c3ccccc3)c2o1` (configuration not stated), 129 to 132 °C.
The value for `CCc1cccc(CC(=O)O)c1OCCCc1cn(-c2ncc(Cl)cc2Cl)nc1C(C)C` was 93 to 95 °C; that for `O=C(CCCN1CCN(c2cccc(Cl)c2)CC1)N1CCc2ccccc21` was 102 to 107 °C.
Take `Clc1ccc2nc(-c3ccccc3)cc(Cl)c2c1`: the melting point fell in the range of 114 to 116 °C.
`O=C(O)c1ccc(Oc2nccs2)c(F)c1` yielded a melting point of 133 to 134 °C.
On to `CC(C)Oc1cc(CCCOc2nn(Cc3ccccc3)cc2CC(=O)O)n(Cc2ccc(F)cc2Cl)n1`, for which the melting point fell in the range of 121 to 123 °C.
Compound `CCC1=C(C)CN(C(=O)NC2COc3cc(OC)ccc3C2)C1=O` (configuration not stated) had a melting point of 118 to 119 °C.
The value for `CCCCCCCC(=O)OC(=C1C(=O)N(C(N)=O)c2cc(Cl)c(F)cc21)c1cccs1` was 149 to 150 °C; that for `C=C(C)c1ccc2cc(OC)ccc2c1` was 101 °C.
`N#Cc1cc([N+](=O)[O-])ccc1Oc1ccccc1` returned a melting point of 126 °C.
The value for `CCNC(=O)c1c(Cl)ccc(N)c1[Si](C)(C)C` was 147 to 149 °C.
`CC(Cl)(Cl)C(NC(=O)c1ccc(F)cc1)NC(=NC#N)Nc1ccc(Cl)nc1` (configuration not stated) gave a melting point of 197 to 198 °C.
For `c1coc(CCCCCCOc2ccc(C3=NCCO3)cc2)c1`, the melting point was determined as 74 °C.
Compound `CC(C)(C)c1cc(O)cc(C(C)(C)C)c1Sc1nnc(-c2ccccn2)o1` yielded a melting point of 128 to 129 °C.
The result for `COc1ccc(C(Cl)=C(C#N)c2ccc(OC)cc2)cc1` reads 140 to 142 °C; that for `CN(C)c1cccc(C(=C2CN(C(c3ccccc3)c3ccccc3)C2)S(C)(=O)=O)c1`, 176 °C.
The result for `Cc1ncsc1C(C)(O)c1ccoc1` (configuration not stated) reads 102 to 104 °C.
As to `CC(=O)Oc1cccc2sc(-c3ccc(C)cc3)nc12`, the melting point was in the range of 110 to 113 °C.
The result for `CCOCc1cc2c([N+](=O)[O-])cccc2cn1` reads 54 °C.
The result for `O=NN(CCCl)C(=O)NCCOC(=O)c1cccnc1` reads 63 to 64 °C.
The compound `CC1(C)CCC(C)(C)c2cc(S(=O)(=O)n3c(CCCC(=O)O)cc4cc(Cl)ccc43)ccc21` came in with a melting point of 64 to 66 °C.
The value for `Cc1ccc(-c2ccc(=S)[nH]n2)c(OCC(O)CNC(C)(C)C)c1` (configuration not stated) was 135 to 140 °C; that for `COC(=O)C(Cc1ccc(OCCN(C)c2nc3ccccc3o2)cc1)Sc1ccccc1` (configuration not stated) was 78 to 79 °C.
Compound `CC(C)(C)OC(=O)n1cccc1-c1ccc(C[C@H](NC(=O)c2c(Cl)cccc2Cl)C(=O)O)cc1` yielded a melting point of 98 to 99 °C.
The compound `COC(=O)C=Cc1ccc(-c2ccc(O)cc2)cc1` gave a melting point of 233 to 235 °C.
Regarding `O=C(O)c1ccc2c(c1)S(=O)(=O)c1ccccc1S2=O` (configuration not stated), the melting point lay within 340 to 343 °C.
Compound `Cc1cc(C(=O)O)ccc1C(N)(CC1c2ccccc2Oc2ccccc21)C(=O)O` (configuration not stated) yielded a melting point of 215 to 216 °C.
The result for `CCC(C)CNC1=NS(=O)(=O)c2sc(Cl)cc2N1` (configuration not stated) reads 232 to 234 °C; that for `COc1ccc(I)cc1CN`, 95 to 97 °C.
